Earlier results in PubChem BioAssay AID1259409 (Chemical Carcinogenesis Research Information System (CCRIS), 2018).

Tested on: rodent chemically induced tumor inhibition, incidence and multiplicity
Assay: CCRIS tumor inhibitor studies
Excerpt: The CCRIS database contains chemical records with carcinogenicity, mutagenicity, tumor promotion, and tumor inhibition test results. It was developed by the National Cancer Institute (NCI). Data are derived from studies cited in primary journals, current awareness tools, NCI reports, and other sources. Test results have been reviewed by experts in carcinogenesis and mutagenesis.
CCRIS provides historical information from the years 1985 - 2011. It is no longer updated.
This is an archive assay for CCRIS tumor inhibitor studies.

In the case of `C=C[C@H](OC(C)=O)c1ccc(OC(C)=O)cc1`, the “tumour outcome (control, treated, inhibition, significance)” value (Carcinogen: 4-NITROQUINOLINE-1-OXIDE, 56-57-5, Dose [Inhibitor]: 0, 100 PPM IN DIET FOR 10 WK BEGINNING 1 WK PRIOR TO CARCINOGEN TREATMENT (STUDY DURATION: 32 WK), Route [Inhibitor]: ORAL, Species: RAT, Strain/Sex: F344/MALE, Target Tissue: Type of Lesion: TONGUE: PAPILLOMA OR CARCINOMA, Dose [Carcinogen]: 20 PPM IN DRINKING WATER FOR 8 WK, Promoter: NONE USED) is given as 14/24 (58%), 0/20 (0%), 100%, p<0.001, the “tumour outcome (control, treated, inhibition, significance)” value (Carcinogen: 4-NITROQUINOLINE-1-OXIDE, 56-57-5, Dose [Inhibitor]: 0, 100 PPM IN DIET FOR 22 WK BEGINNING 1 WK POST CARCINOGEN TREATMENT (STUDY DURATION: 32 WK), Route [Inhibitor]: ORAL, Species: RAT, Strain/Sex: F344/MALE, Target Tissue: Type of Lesion: TONGUE: PAPILLOMA OR CARCINOMA, Dose [Carcinogen]: 20 PPM IN DRINKING WATER FOR 8 WK, Promoter: NONE USED) is given as 14/24 (58%), 0/20 (0%), 100%, p<0.001 and the “tumour outcome (control, treated, inhibition, significance)” value (Carcinogen: 4-NITROQUINOLINE-1-OXIDE, 56-57-5, Dose [Inhibitor]: 0, 500 PPM IN DIET FOR 10 WK BEGINNING 1 WK PRIOR TO CARCINOGEN TREATMENT (STUDY DURATION: 32 WK), Route [Inhibitor]: ORAL, Species: RAT, Strain/Sex: F344/MALE, Target Tissue: Type of Lesion: TONGUE: PAPILLOMA OR CARCINOMA, Dose [Carcinogen]: 20 PPM IN DRINKING WATER FOR 8 WK, Promoter: NONE USED) is given as 14/24 (58%), 2/23 (9%), 84%, p<0.001. For the same compound, the “tumour outcome (control, treated, inhibition, significance)” value (Carcinogen: 4-NITROQUINOLINE-1-OXIDE, 56-57-5, Dose [Inhibitor]: 0, 500 PPM IN DIET FOR 22 WK BEGINNING 1 WK POST CARCINOGEN TREATMENT (STUDY DURATION: 32 WK), Route [Inhibitor]: ORAL, Species: RAT, Strain/Sex: F344/MALE, Target Tissue: Type of Lesion: TONGUE: PAPILLOMA OR CARCINOMA, Dose [Carcinogen]: 20 PPM IN DRINKING WATER FOR 8 WK, Promoter: NONE USED) was 14/24 (58%), 0/23 (0%), 100%, p<0.001, the “tumour outcome (control, treated, inhibition, significance)” value (Carcinogen: AZOXYMETHANE, 25843-45-2, Dose [Inhibitor]: 0, 0.01% IN DIET FOR 4 WK BEGINNING 1 WK PRIOR TO CARCINOGEN TREATMENT (STUDY DURATION: 38 WK), Route [Inhibitor]: ORAL, Species: RAT, Strain/Sex: F344/MALE, Target Tissue: Type of Lesion: COLON: ADENOCARCINOMA, Dose [Carcinogen]: 15 MG/KG BW 1/WK FOR 3 WK, Promoter: NONE) was 70%, 33%, 53%, p<0.03 and the “tumour outcome (control, treated, inhibition, significance)” value (Carcinogen: AZOXYMETHANE, 25843-45-2, Dose [Inhibitor]: 0, 0.01% IN DIET FOR 34 WK BEGINNING 1 WK POST LAST CARCINOGEN DOSE (STUDY DURATION: 38 WK), Route [Inhibitor]: ORAL, Species: RAT, Strain/Sex: F344/MALE, Target Tissue: Type of Lesion: COLON: ADENOCARCINOMA, Dose [Carcinogen]: 15 MG/KG BW 1/WK FOR 3 WK, Promoter: NONE) was 70%, 38%, 46%, not significant. The “tumour outcome (control, treated, inhibition, significance)” value (Carcinogen: AZOXYMETHANE, 25843-45-2, Dose [Inhibitor]: 0, 0.02% IN DIET FOR 4 WK BEGINNING 1 WK PRIOR TO CARCINOGEN TREATMENT (STUDY DURATION: 38 WK), Route [Inhibitor]: ORAL, Species: RAT, Strain/Sex: F344/MALE, Target Tissue: Type of Lesion: COLON: ADENOCARCINOMA, Dose [Carcinogen]: 15 MG/KG BW 1/WK FOR 3 WK, Promoter: NONE) was 70%, 17%, 76%, p<0.001, the “tumour outcome (control, treated, inhibition, significance)” value (Carcinogen: AZOXYMETHANE, 25843-45-2, Dose [Inhibitor]: 0, 0.02% IN DIET FOR 34 WK BEGINNING 1 WK POST LAST CARCINOGEN DOSE (STUDY DURATION: 38 WK), Route [Inhibitor]: ORAL, Species: RAT, Strain/Sex: F344/MALE, Target Tissue: Type of Lesion: COLON: ADENOCARCINOMA, Dose [Carcinogen]: 15 MG/KG BW 1/WK FOR 3 WK, Promoter: NONE) was 70%, 6%, 91%, p<0.00003 and the “tumour outcome (control, treated, inhibition, significance)” value (Carcinogen: AZOXYMETHANE, 25843-45-2, Dose [Inhibitor]: 0, 100 PPM IN DIET FOR 4 WK BEGINNING 1 WK PRIOR TO CARCINOGEN TREATMENT (STUDY DURATION: 38 WK), Route [Inhibitor]: ORAL, Species: RAT, Strain/Sex: F344/MALE, Target Tissue: Type of Lesion: LARGE INTESTINE: TUMOR, Dose [Carcinogen]: 15 MG/KG BW 1/WK FOR 3 WK, Promoter: NONE USED) was 12/17 (71%), 7/18 (39%), 45%, not significant. For the same compound, the “tumour outcome (control, treated, inhibition, significance)” value (Carcinogen: AZOXYMETHANE, 25843-45-2, Dose [Inhibitor]: 0, 100 PPM IN DIET FOR 4 WK BEGINNING 1 WK PRIOR TO CARCINOGEN TREATMENT (STUDY DURATION: 38 WK), Route [Inhibitor]: ORAL, Species: RAT, Strain/Sex: F344/MALE, Target Tissue: Type of Lesion: SMALL INTESTINE: TUMOR, Dose [Carcinogen]: 15 MG/KG BW 1/WK FOR 3 WK, Promoter: NONE USED) was 5/17 (29%), 3/18 (17%), 41%, not significant, the “tumour outcome (control, treated, inhibition, significance)” value (Carcinogen: AZOXYMETHANE, 25843-45-2, Dose [Inhibitor]: 0, 100 PPM IN DIET FOR 34 WK BEGINNING 1 WK POST CARCINOGEN TREATMENT (STUDY DURATION: 38 WK), Route [Inhibitor]: ORAL, Species: RAT, Strain/Sex: F344/MALE, Target Tissue: Type of Lesion: LARGE INTESTINE: TUMOR, Dose [Carcinogen]: 15 MG/KG BW 1/WK FOR 3 WK, Promoter: NONE USED) was 12/17 (71%), 9/18 (50%), 30%, not significant and the “tumour outcome (control, treated, inhibition, significance)” value (Carcinogen: AZOXYMETHANE, 25843-45-2, Dose [Inhibitor]: 0, 100 PPM IN DIET FOR 34 WK BEGINNING 1 WK POST CARCINOGEN TREATMENT (STUDY DURATION: 38 WK), Route [Inhibitor]: ORAL, Species: RAT, Strain/Sex: F344/MALE, Target Tissue: Type of Lesion: SMALL INTESTINE: TUMOR, Dose [Carcinogen]: 15 MG/KG BW 1/WK FOR 3 WK, Promoter: NONE USED) was 5/17 (29%), 4/18 (22%), 24%, not significant. The “tumour outcome (control, treated, inhibition, significance)” value (Carcinogen: AZOXYMETHANE, 25843-45-2, Dose [Inhibitor]: 0, 500 PPM IN DIET FOR 4 WK BEGINNING 1 WK PRIOR TO CARCINOGEN TREATMENT (STUDY DURATION: 38 WK), Route [Inhibitor]: ORAL, Species: RAT, Strain/Sex: F344/MALE, Target Tissue: Type of Lesion: LARGE INTESTINE: TUMOR, Dose [Carcinogen]: 15 MG/KG BW 1/WK FOR 3 WK, Promoter: NONE USED) was 12/17 (71%), 8/19 (42%), 41%, not significant, the “tumour outcome (control, treated, inhibition, significance)” value (Carcinogen: AZOXYMETHANE, 25843-45-2, Dose [Inhibitor]: 0, 500 PPM IN DIET FOR 4 WK BEGINNING 1 WK PRIOR TO CARCINOGEN TREATMENT (STUDY DURATION: 38 WK), Route [Inhibitor]: ORAL, Species: RAT, Strain/Sex: F344/MALE, Target Tissue: Type of Lesion: SMALL INTESTINE: TUMOR, Dose [Carcinogen]: 15 MG/KG BW 1/WK FOR 3 WK, Promoter: NONE USED) was 5/17 (29%), 5/19 (26%), 10%, not significant and the “tumour outcome (control, treated, inhibition, significance)” value (Carcinogen: AZOXYMETHANE, 25843-45-2, Dose [Inhibitor]: 0, 500 PPM IN DIET FOR 34 WK BEGINNING 1 WK POST CARCINOGEN TREATMENT (STUDY DURATION: 38 WK), Route [Inhibitor]: ORAL, Species: RAT, Strain/Sex: F344/MALE, Target Tissue: Type of Lesion: LARGE INTESTINE: TUMOR, Dose [Carcinogen]: 15 MG/KG BW 1/WK FOR 3 WK, Promoter: NONE USED) was 12/17 (71%), 4/20 (20%), 72%, p=0.002. The “tumour outcome (control, treated, inhibition, significance)” value (Carcinogen: AZOXYMETHANE, 25843-45-2, Dose [Inhibitor]: 0, 500 PPM IN DIET FOR 34 WK BEGINNING 1 WK POST CARCINOGEN TREATMENT (STUDY DURATION: 38 WK), Route [Inhibitor]: ORAL, Species: RAT, Strain/Sex: F344/MALE, Target Tissue: Type of Lesion: SMALL INTESTINE: TUMOR, Dose [Carcinogen]: 15 MG/KG BW 1/WK FOR 3 WK, Promoter: NONE USED) was 5/17 (29%), 2/20 (10%), 66%, not significant.
For `COc1ccc(CCN(C)CCCC(C#N)(c2ccc(OC)c(OC)c2)C(C)C)cc1OC` (stereo not given), the “tumour outcome (control, treated, inhibition, significance)” value (Carcinogen: 7,12-DIMETHYLBENZ[A]ANTHRACENE, 57-97-6, Dose [Inhibitor]: 0, 3.5 MG/KG/D IN DRINKING WATER (STUDY DURATION: 20 WK), Route [Inhibitor]: ORAL, Species: RAT, Strain/Sex: SPRAGUE-DAWLEY/FEMALE, Target Tissue: Type of Lesion: MAMMARY GLAND: TUMOR, Dose [Carcinogen]: 50 MG/KG ONCE, Promoter: NONE USED) is given as 9/20 (45%), 3/20(15%), 67%, p< 0.05, the “tumour outcome (control, treated, inhibition, significance)” value (Carcinogen: 7,12-DIMETHYLBENZ[A]ANTHRACENE, 57-97-6, Dose [Inhibitor]: 0, 2 UMOL 1/WK FOR 21 WK APPLIED 1 HR POST EACH PROMOTER DOSE (STUDY DURATION: 21 WK), Route [Inhibitor]: DERMAL, Species: MOUSE, Strain/Sex: SENCAR/FEMALE, Target Tissue: Type of Lesion: SKIN: PAPILLOMA, Dose [Carcinogen]: 25 NMOL ONCE, Promoter: CHRYSAROBIN, 491-58-7) is given as 90%, 82%, 9%, not significant and the “tumour outcome (control, treated, inhibition, significance)” value (Carcinogen: N-NITROSOMORPHOLINE, 59-89-2, Dose [Inhibitor]: 0, 20 MG/KG BW IN 0.9% SALINE 1/2 D FOR DURATION OF STUDY (STUDY DURATION: 16 WK), Route [Inhibitor]: INTRAPERITONEAL, Species: RAT, Strain/Sex: SPRAGUE-DAWLEY/MALE, Target Tissue: Type of Lesion: LIVER: HEPATOCELLULAR CARCINOMA, Dose [Carcinogen]: 175 MG/L IN DRINKING WATER FOR 8 WK, Promoter: NONE USED) is given as 10/20 (50%), 3/20 (15%), 70%, p<0.05.
In the case of `C=C1C[C@H]2[C@@H]3CC[C@H](OC(C)=O)[C@@]3(C)CC[C@@H]2[C@@]2(C)CCC(=O)C=C12`, the “tumour outcome (control, treated, inhibition, significance)” value (Carcinogen: NONE USED, Dose [Inhibitor]: 0, 1 SILASTIC CAPSULE (1.5, 2.0, AND 15 MM IN INNER AND OUTER DIAMETERS AND LENGTH, RESPECTIVELY) REPLACED AFTER 2 MO IN, Route [Inhibitor]: SUBCUTANEOUS IMPLANT, Species: MOUSE, Strain/Sex: SHN/FEMALE, Target Tissue: Type of Lesion: MAMMARY GLAND: TUMOR, Promoter: NONE USED) is listed as 100%, 75%, 25%, p<0.01.
